# Experiments:
# Type in all cases: biochemical
# [1] = target: T1, human JAK3 (Homo sapiens, UniProt P52333); assay: JAK3 inhibition assay; details: recombinant human JAK3 catalytic domain; polyGT substrate
# T1 construct: catalytic domain (amino acids 781-1124; catalog number PV3855); purchased Invitrogen PV3855
# Method in brief: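 Radiometric kinase assay: 0.5 ng JAK3 with 2.5 μg polyGT in Tris pH 7.5/MgCl2 buffer, 1 μM ATP plus 0.25 μCi 33P-γ-ATP, 1% DMSO, 45 min at 30 °C, stopped with phosphoric acid.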
# [2] = target: T2, human JAK1 (Homo sapiens, UniProt P23458); assay: JAK1 inhibition assay (polyGT substrate / Ulight-JAK1 peptide); details: recombinant human JAK1 catalytic domain; polyGT or Ulight-JAK1 peptide assay
# T2 construct: catalytic domain, amino acids 866-1154; catalog number PV4774; purchased Invitrogen PV4774
# T2 sequence (P23458 866-1154): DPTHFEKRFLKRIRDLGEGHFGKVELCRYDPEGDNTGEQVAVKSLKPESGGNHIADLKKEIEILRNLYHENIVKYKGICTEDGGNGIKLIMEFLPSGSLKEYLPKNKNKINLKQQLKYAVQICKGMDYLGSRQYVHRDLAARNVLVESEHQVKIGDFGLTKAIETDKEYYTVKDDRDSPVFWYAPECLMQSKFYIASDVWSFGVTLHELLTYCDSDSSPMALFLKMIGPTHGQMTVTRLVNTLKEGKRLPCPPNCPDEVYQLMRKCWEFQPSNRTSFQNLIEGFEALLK
# Method in brief: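 Signal scaled between vehicle and 10 μM staurosporine. Radiometric polyGT reactions ran 45 min at 30 °C, counted after phosphoric-acid stop. Ulight peptide reactions ran 60 min at room temperature, fluorescence read after adding Eu-PT66 detection mix with EDTA.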
# [3] = target: T3, human TYK2 (Homo sapiens, UniProt P29597); assay: TYK2 inhibition assay; details: recombinant human TYK2 catalytic domain, polyGT substrate
# T3 construct: catalytic domain (amino acids 871-1187; catalog number 08-147); purchased Carna Biosciences 08-147
# T3 sequence (P29597 871-1187): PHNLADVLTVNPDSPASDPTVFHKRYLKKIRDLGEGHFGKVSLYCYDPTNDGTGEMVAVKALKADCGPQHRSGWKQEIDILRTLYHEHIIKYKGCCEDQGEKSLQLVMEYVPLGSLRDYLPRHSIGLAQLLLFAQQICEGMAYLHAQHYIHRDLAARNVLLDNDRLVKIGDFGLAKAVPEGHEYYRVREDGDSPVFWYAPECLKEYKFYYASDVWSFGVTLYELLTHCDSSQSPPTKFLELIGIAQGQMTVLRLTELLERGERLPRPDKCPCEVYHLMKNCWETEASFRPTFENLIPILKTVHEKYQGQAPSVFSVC
# Method in brief: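 Radiometric kinase reaction run 90 min at 30 °C, stopped with phosphoric acid, washed and scintillation-counted.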
# [4] = target: T4, human JAK2 (Homo sapiens, UniProt O60674); assay: JAK2 inhibition assay (polyGT substrate / Ulight-JAK1 peptide); details: recombinant human JAK2 catalytic domain; polyGT or Ulight-JAK1 peptide assay
# T4 construct: catalytic domain (amino acids 808-1132; catalog number PV4210); GST; purchased Invitrogen PV4210
# T4 sequence (O60674 808-1132): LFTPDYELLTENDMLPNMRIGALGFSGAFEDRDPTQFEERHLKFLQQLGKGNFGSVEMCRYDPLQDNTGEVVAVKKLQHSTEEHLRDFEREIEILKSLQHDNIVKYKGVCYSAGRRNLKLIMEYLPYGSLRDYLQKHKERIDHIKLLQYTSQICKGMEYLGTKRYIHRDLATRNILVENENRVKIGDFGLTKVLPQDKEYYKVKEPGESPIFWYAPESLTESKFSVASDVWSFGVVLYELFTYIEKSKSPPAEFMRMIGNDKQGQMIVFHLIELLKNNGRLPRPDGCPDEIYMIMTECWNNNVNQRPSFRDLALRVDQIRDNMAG
# Method in brief: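 Two JAK2 formats: a ^33P-ATP polyGT assay (1 μM cold ATP, 90 min, 30° C., cpm read-out) and a Ulight-JAK1 peptide assay read by Europium-anti-phosphotyrosine fluorescence after 60 min at room temperature.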
# T1 sequence (P52333 781-1124): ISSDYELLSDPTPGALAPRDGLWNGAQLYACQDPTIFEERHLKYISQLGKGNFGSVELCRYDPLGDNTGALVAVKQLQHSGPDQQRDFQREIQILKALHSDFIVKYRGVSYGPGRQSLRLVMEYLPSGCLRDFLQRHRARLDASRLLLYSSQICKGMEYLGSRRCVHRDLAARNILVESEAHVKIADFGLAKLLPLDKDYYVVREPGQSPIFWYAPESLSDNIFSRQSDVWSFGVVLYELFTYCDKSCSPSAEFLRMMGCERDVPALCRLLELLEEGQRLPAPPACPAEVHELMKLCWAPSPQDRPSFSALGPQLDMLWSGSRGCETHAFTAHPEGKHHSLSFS
IC50 [1],IC50 [2],IC50 [3],IC50 [4],Compound
> 1000 nM,0.01 to 100 nM,> 1000 nM,101 to 500 nM,"CN(c1cc2c(cn1)ncn2C)c1ccc(C2CN(S(=O)(=O)N3CCOCC3)C2)cc1OC(F)F [Compound 371, {2-Difluoromethoxy-4-[1-(morpholine-4-sulfonyl)-azetidin-3-yl]-phenyl}-methyl-(1-methyl-1H-imidazo[4,5-c]pyridin-6-yl)-amine]"
> 1000 nM,101 to 500 nM,> 1000 nM,101 to 500 nM,"CN(c1cc2c(cn1)ncn2C)c1ccc(C2CN(CC(N)=O)C2)cc1OC(F)F [Compound 374, 2-(3-{3-Difluoromethoxy-4-[methyl-(1-methyl-1H-imidazo[4,5-c]pyridin-6-yl)-amino]-phenyl}-azetidin-1-yl)-acetamide]"
> 1000 nM,101 to 500 nM,> 1000 nM,> 1000 nM,"CCc1cc(CN2CC(C)(C)C2)ccc1N(C)c1cc2c(cn1)ncn2C [Compound 382, [4-(3,3-Dimethyl-azetidin-1-ylmethyl)-2-ethyl-phenyl]-methyl-(1-methyl-1H-imidazo[4,5-c]pyridin-6-yl)-amine]"
> 1000 nM,101 to 500 nM,> 1000 nM,> 1000 nM,"CCc1cc(CC(=O)N2CC(C)(C)C2)ccc1N(C)c1cc2c(cn1)ncn2C [Compound 386, 1-(3,3-Dimethyl-azetidin-1-yl)-2-{3-ethyl-4-[methyl-(1-methyl-1H-imidazo[4,5-c]pyridin-6-yl)-amino]-phenyl}-ethanone]"
> 1000 nM,0.01 to 100 nM,> 1000 nM,101 to 500 nM,"CCc1cc(N2CC(C(=O)OC)C2)ncc1N(C)c1cc2c(cn1)ncn2C [Compound 399, 1-{4-Ethyl-5-[methyl-(1-methyl-1H-imidazo[4,5-c]pyridin-6-yl)-amino]-pyridin-2-yl}-azetidine-3-carboxylic acid methyl ester]"
> 1000 nM,101 to 500 nM,> 1000 nM,501 to 1000 nM,"CCc1cc(N2CC(C(=O)NCC#N)C2)ncc1N(C)c1cc2c(cn1)ncn2C [Compound 401, 1-{4-Ethyl-5-[methyl-(1-methyl-1H-imidazo[4,5-c]pyridin-6-yl)-amino]-pyridin-2-yl}-azetidine-3-carboxylic acid cyanomethyl-amide]"
> 1000 nM,501 to 1000 nM,> 1000 nM,> 1000 nM,"CN(c1cc2c(cn1)ncn2C)c1c(F)cc(C#N)cc1F [Compound 403, 3,5-Difluoro-4-[methyl-(1-methyl-1H-imidazo[4,5-c]pyridin-6-yl)-amino]-benzonitrile]"
> 1000 nM,> 1000 nM,> 1000 nM,> 1000 nM,"CN(c1cc2c(cn1)ncn2C)c1c(F)cc(C2CN(C(=O)OC(C)(C)C)C2)cc1F [Compound 408, 3-{3,5-Difluoro-4-[methyl-(1-methyl-1H-imidazo[4,5-c]pyridin-6-yl)-amino]-phenyl)-azetidine-1-carboxylic acid tert-butyl ester]"
> 1000 nM,501 to 1000 nM,> 1000 nM,501 to 1000 nM,"CCNC(=O)C1CN(c2cc(CC)c(N(C)c3cc4c(cn3)ncn4C)cn2)C1 [Compound 412, 1-{4-Ethyl-5-[methyl-(1-methyl-1H-imidazo[4,5-c]pyridin-6-yl)-amino]-pyridin-2-yl}-azetidine-3-carboxylic acid ethylamide]"
0.01 to 100 nM,0.01 to 100 nM,101 to 500 nM,0.01 to 100 nM,"CCc1cc(N2CCCC(C#N)C2)ncc1N(C)c1cc2c(cn1)ncn2C (centres unmarked) [Compound 416, 4′-Ethyl-5′-[methyl-(1-methyl-1H-imidazo[4,5-c]pyridin-6-yl)-amino]-3,4,5,6-tetrahydro-2H-[1,2′]bipyridinyl-3-carbonitrile]"
101 to 500 nM,0.01 to 100 nM,0.01 to 100 nM,0.01 to 100 nM,"CCc1cc(N2CC[C@H](C)C2)ncc1N(C)c1cc2c(cn1)ncn2C [Compound 417, [4-Ethyl-6-((S)-3-methyl-pyrrolidin-1-yl)-pyridin-3-yl]-methyl-(1-methyl-1H-imidazo[4,5-c]pyridin-6-yl)-amine]"
0.01 to 100 nM,0.01 to 100 nM,0.01 to 100 nM,0.01 to 100 nM,"CCc1cc(N2CCC(C#N)C2)ncc1N(C)c1cc2c(cn1)ncn2C (centres unmarked) [Compound 418, 1-{4-Ethyl-5-[methyl-(1-methyl-1H-imidazo[4,5-c]pyridin-6-yl)-amino]-pyridin-2-yl}-pyrrolidine-3-carbonitrile]"
> 1000 nM,0.01 to 100 nM,> 1000 nM,0.01 to 100 nM,"Cc1ccc(N(C)c2cc3c(cn2)ncn3C)c(OC(F)F)c1 [Compound 427, (2-Difluoromethoxy-4-methyl-phenyl)-methyl-(1-methyl-1H-imidazo[4,5-c]pyridin-6-yl)-amine]"
> 1000 nM,101 to 500 nM,> 1000 nM,> 1000 nM,"CN(c1cc2c(cn1)ncn2C)c1ccc(C#N)cc1OC(F)F [Compound 428, 3-Difluoromethoxy-4-[methyl-(1-methyl-1H-imidazo[4,5-c]pyridin-6-yl)-amino]-benzonitrile]"
101 to 500 nM,101 to 500 nM,> 1000 nM,> 1000 nM,"CCc1ccccc1N(C)c1cc2c(cn1)ncn2C(F)F [Compound 431, (1-Difluoromethyl-1H-imidazo[4,5-c]pyridin-6-yl)-(2-ethyl-phenyl)-methyl-amine]"
> 1000 nM,101 to 500 nM,> 1000 nM,> 1000 nM,"CCc1cc(N2CC(N)C2)ncc1N(C)c1cc2c(cn1)ncn2C [Compound 442, [6-(3-Amino-azetidin-1-yl)-4-ethyl-pyridin-3-yl]-methyl-(1-methyl-1H-imidazo[4,5-d]pyridin-6-yl)-amine]"
101 to 500 nM,0.01 to 100 nM,0.01 to 100 nM,0.01 to 100 nM,"CCc1cc(N2CC(NS(C)(=O)=O)C2)ncc1N(C)c1cc2c(cn1)ncn2C [Compound 443, N-(1-{4-Ethyl-5-[methyl-(1-methyl-1H-imidazo[4,5-c]pyridin-6-yl)-amino]-pyridin-2-yl}-azetidin-3-yl)-methAnesulfonamide]"
101 to 500 nM,0.01 to 100 nM,0.01 to 100 nM,0.01 to 100 nM,"CCc1cc(C(C#N)N2CCOCC2)ncc1N(C)c1cc2c(cn1)ncn2C (centres unmarked) [Compound 444, {4-Ethyl-5-[methyl-(1-methyl-1H-imidazo[4,5-c]pyridin-6-yl)-amino]-pyridin-2-yl}-morpholin-4-yl-acetonitrile]"
101 to 500 nM,0.01 to 100 nM,0.01 to 100 nM,0.01 to 100 nM,"CCC(=O)NC1CN(C(C#N)c2ccc(N(C)c3cc4c(cn3)ncn4C)c(CC)c2)C1 (centres unmarked) [Compound 454, N-[1-(Cyano-{3-ethyl-4-[methyl-(1-methyl-1H-imidazo[4,5-c]pyridin-6-yl)-amino]-phenyl}-methyl)-azetidin-3-yl]-propionamide]"
0.01 to 100 nM,0.01 to 100 nM,0.01 to 100 nM,0.01 to 100 nM,"CCc1cc(C(C#N)N2CC(NS(C)(=O)=O)C2)ccc1N(C)c1cc2c(cn1)ncn2C (centres unmarked) [Compound 455, N-[1-(Cyano-{3-ethyl-4-[methyl-(1-methyl-1H-imidazo[4,5-c]pyridin-6-yl)-amino]-phenyl}-methyl)-azetidin-3-yl]-methanesulfonamide]"
> 1000 nM,> 1000 nM,> 1000 nM,> 1000 nM,"CCc1ncncc1N(C)c1cc2c(cn1)ncn2C [Compound 456, (4-Ethyl-pyrimidin-5-yl)-methyl-(1-methyl-1H-imidazo[4,5-c]pyridin-6-yl)-amine]"
> 1000 nM,> 1000 nM,> 1000 nM,> 1000 nM,"CCc1nc(C2CN(C(=O)OC(C)(C)C)C2)cnc1N(C)c1cc2c(cn1)ncn2C [Compound 457, 3-{6-Ethyl-5-[methyl-(1-methyl-1H-imidazo[4,5-c]pyridin-6-yl)-amino]-pyrazin-2-yl}-azetidine-1-carboxylic acid tert-butyl ester]"
501 to 1000 nM,0.01 to 100 nM,501 to 1000 nM,101 to 500 nM,"CCc1cc(C2(C#N)CN(S(C)(=O)=O)C2)ncc1N(C)c1cc2c(cn1)ncn2C [Compound 458, 3-{4-Ethyl-5-[methyl-(1-methyl-1H-imidazo[4,5-c]pyridin-6-yl)-amino]-pyridin-2-yl}-1-methanesulfonyl-azetidine-3-carbonitrile]"
